{"source": "patent US6649379B1", "about": "“Method and deregulated enzyme for threonine production” (priority 1987, dated 2003)", "molecules": {"B1": {"name": "wild type: wild type C. glutamicum homoserine dehydrogenase (SEQ ID NO:2) (protein)", "chain": "MTSASAPSFNPGKGPGSAVGIALLGFGTVGTEVMRLMTEYGDELAHRIGGPLEVRGIAVSDISKPREGVAPELLTEDAFALIEREDVDIVVEVIGGIEYPREVVLAALKAGKSVVTANKALVAAHSAELADAAEAANVDLYFEAAVAGAIPVVGPLRRSLAGDQIQSVMGIVNGTTNFILDAMDSTGADYADSLAEATRLGYAEADPTADVEGHDAASKAAILASIAFHTRVTADDVYCEGISNISAADIEAAQQAGHTIKLLAICEKFTNKEGKSAISARVHPTLLPVSHPLASVNKSFNAIFVEAEAAGRLMFYGNGAGGAPTASAVLGDVVGAARNKVHGGRAPGESTYANLPIADFGETTTRYHLDMDVEDRVGVLAELASLFSEQGISLRTIRQEERDDDARLIVVTHSALESDLSRTVELLKAKPVVKAINSVIRLERD"}}, "key": {"[1]": {"target": "T1, homoserine dehydrogenase enzyme of C. glutamicum (Corynebacterium glutamicum, UniProt P08499)", "T1 sequence (P08499 1-445)": "B1 chain", "details": "threonine inhibition of C. glutamicum homoserine dehydrogenase; read-out: inhibition rate constant (Ki); cited from earlier work"}, "[2]": {"target": "T2, homoserine dehydrogenase (Corynebacterium glutamicum, UniProt P08499)", "T2 construct": "Crude cell lysates for homoserine dehydrogenase assays were prepared from 500 ml MMCG C. glutamicum AS019 and R102 cultures; endogenous in cells; host or cells: C. glutamicum AS019 and AS019E12/pMF33 (chromosomal wild-type hom); R102 (chromosomal hom^dr); AS019E12/pJD4 (plasmid-borne hom^dr beside chromosomal wild-type hom)", "test": "Homoserine dehydrogenase activity in crude cell extracts (initial decrease in absorbance at 340 nm by NADPH)", "assay_type": "biochemical, C. glutamicum", "procedure": "Verified pJD4/AS019EI2 transformants were selected for the presence of the plasmid by growth on kanamycin supplemented mediums. The activity of the homoserine dehydrogenase from crude cell extracts of these cultures was determined in the presence and absence of L-threonine. A host cell encoding wild type homoserine dehydrogenase would be inactivated in the presence of 10 mM L-threonine. […] Therefore, homoserine dehydrogenase activity in the presence of L-threonine was derived from the cloned hom^dr gene. The specific activity of the deregulated homoserine dehydrogenase is approximately the same as that reported for the C. glutamicum chromosomal hom gene (0.0450 μM ml^−1min^1) The cloned hom^dr gene product was functional even in the presence of 120 mM L-threonine.\nOne ml of the supernatant from an overnight 10 ml MMCG culture of an alpha-hydroxy-valerate tolerant C. glutamicum isolate was filter sterilized and added 1:10 to a fresh 10 ml MMCG medium. […] Growth of AS155 was determined by densitometry after a 24 hour incubation at 30° C. […] The activity of homoserine dehydrogenase in crude cell extracts of C. glutamicum R102 and AS019 in the presence of both threonine and alpha-hydroxy-valerate was measured. […] Homoserine dehydrogenase activity was assayed by determining the initial decrease in the absorbance at 340 nm by NADPH as described by Follettie et al., Mol. Microbiol. […]"}, "[3]": {"target": "T3, homoserine dehydrogenase (Corynebacterium glutamicum, UniProt P08499)", "T3 construct": "Crude cell lysates for homoserine dehydrogenase assays were prepared from 500 ml MMCG C. glutamicum AS019 and R102 cultures; endogenous in cells; host or cells: C. glutamicum AS019 and AS019E12/pMF33 (chromosomal wild-type hom); R102 (chromosomal hom^dr); AS019E12/pJD4 (plasmid-borne hom^dr beside chromosomal wild-type hom)", "T3 sequence (P08499 whole entry, looked up)": "B1 chain", "parameters": "specific activity reported for the C. glutamicum chromosomal hom gene: unit not given here", "details": "reported value, cited from earlier work"}}}
{"molecule": "C[C@@H](O)[C@H](N)C(=O)O", "note": "[L-threonine]", "values": [{"measurement": "Ki", "setting": "[1]", "result": 160, "unit": "µM"}, {"measurement": "effect of 10 mM L-threonine on wild type homoserine dehydrogenase", "setting": "[2]", "result": "inactivate"}]}
{"molecule": "B1", "values": [{"measurement": "specific activity reported for the C. glutamicum chromosomal hom gene", "setting": "[3]", "result": 0.0450}, {"measurement": "specific activity reported for wild type", "setting": "[3]; wild type homoserine dehydrogenase", "result": 0.0450, "unit": "μM ml^−1min^−1"}]}
